This passage reports ED50 and IC50 results from patent US6545170B2, “2-amino-5, 6 heptenoic acid derivatives useful as nitric oxide synthase inhibitors” (Pharmacia Corporation, priority 2000, dated 2003).

Assay [1] concerns inducible nitric oxide synthase activity (plasma nitrite/nitrate levels). The experiment in a line: In vivo assay: LPS-induced increase in plasma nitrite/nitrate. The conditions noted are these: Rattus norvegicus; rats, endotoxin (LPS) i.p., oral administration, 5 hours post-treatment; read-out: ED50, inhibition of LPS-induced increase in plasma nitrite/nitrate levels. As for the experimental part:
Plasma nitrite/nitrate levels can be determined 5 hours post-treatment.

Assay [2] addresses T1, Human inducible NOS (hiNOS) (Homo sapiens, UniProt P35228).
T1 construct: made in house; host or cells: Sf9 insect cells (baculovirus vector)
The assay can be described thus: Citrulline assay for nitric oxide synthase, hiNOS. The class given is biochemical. The conditions noted are these: recombinant enzyme, 30 μM L-arginine, 37° C. 15 minutes. An excerpt: (§1) Nitric oxide synthase (NOS) activity can be measured by monitoring the conversion of L-[2,3-^3H]-arginine to L-[2,3-^3H]-citrulline (Bredt and Snyder, Proc. Natl. Acad. Sci. U.S.A., 87, 682-685, 1990 and Moore et al, J. Med. Chem., 39, 669-672, 1996). Human inducible NOS (hiNOS), human endothelial constitutive NOS (hecNOS) and human neuronal constitutive NOS (hncNOS) are each cloned from RNA extracted from human tissue. The cDNA for human inducible NOS (hiNOS) is isolated from a λcDNA library made from RNA extracted from a colon sample from a patient with ulcerative colitis. The cDNA for human endothelial constitutive NOS (hecNOS) is isolated from a λcDNA library made from RNA extracted from human umbilical vein endothelial cells (HUVEC) and the cDNA for human neuronal constitutive NOS (hncNOS) is isolated from a λcDNA library made from RNA extracted from human cerebellum obtained from a cadaver. The recombinant enzymes are expressed in Sf9 insect cells using a baculovirus vector (Rodi et al, in The Biology of Nitric Oxide, Pt. 4: Enzymology. Biochemistry and Immunology; Moncada, S., Feelisch, M., Busse, R., Higgs, E., Eds.; Portland Press Ltd.: London, 1995; pp 447-450). Enzyme activity is isolated from soluble cell extracts and partially purified by DEAE-Sepharose chromatography. To measure NOS activity, 10 μL of enzyme is added to 40 μL of 50 mM Tris (pH 7.6) in the presence or absence of test compounds and the reaction initiated by the addition of 50 μL of a reaction mixture containing 50 mM Tris (pH 7.6), 2.0 mg/mL bovine serum albumin, 2.0 mM DTT, 4.0 mM CaCl2, 20 μM FAD, 100 μM tetrahydrobiopterin, 0.4 mM NADPH and 60 μM L-arginine containing 0.9 μCi of L-[2,3-^3H]-arginine. The final concentration of L-arginine in the assay is 30 μM. For hecNOS or hncNOS, calmodulin is included at a final concentration of 40-100 nM. […] After mixing the resin is allowed to settle and L-[2,3-^3H]-Citrulline formation is determined by counting aliquots of the supernatant with a liquid scintillation counter. […]

Assay [3] has as its target T2, human endothelial constitutive NOS (hecNOS) (Homo sapiens, UniProt P29474).
T2 construct: made in house; host or cells: Sf9 insect cells (baculovirus vector)
The assay can be described thus: Citrulline assay for nitric oxide synthase, hecNOS. The conditions noted are these: recombinant enzyme, 30 μM L-arginine, calmodulin 40-100 nM. The class given is biochemical.
Excerpt: as §1

Assay [4] has as its target T3, human neuronal constitutive NOS (hncNOS) (Homo sapiens, UniProt P29475).
T3 construct: made in house; host or cells: Sf9 insect cells (baculovirus vector)
The experiment in a line: Citrulline assay for nitric oxide synthase, hncNOS. The class given is biochemical. The conditions noted are these: recombinant enzyme, 30 μM L-arginine, calmodulin 40-100 nM.
Excerpt: as §1

Where a name gives a salt, the structure may show the parent alone. Some results are limits rather than exact numbers.

As to `CC(=N)NC/C(C)=C\CC[C@H](N)C(=O)O` [Example 1, (2S,5Z)-2-amino-6-methyl-7-[(1-iminoethyl)amino]-5-heptenoic acid, dihydrochloride], the ED50 in assay [1] was less than 0.1 mg/kg.

Regarding `CC(=N)NC/C(C)=C/CC[C@H](N)C(=O)O` [Example 2, (2S,5E)-2-amino-6-methyl-7-[(1-iminoethyl)amino]-5-heptenoic acid, dihydrochloride], the IC50 (as a rule, the midpoint of a concentration-inhibition curve) in assay [2] was 172 µM; in assay [3] it was 1490 µM; in assay [4] it was 523 µM.

Take `CC(=N)NC/C=C\CC[C@H](N)C(=O)O` [Example 6, (2S,5Z)-2-amino-7-[(1-iminoethyl)amino]-5-heptenoic acid, dihydrochloride]: the IC50 is 0.9 µM in assay [2], 89 µM in assay [3] and 8 µM in assay [4].

Regarding `CC(=N)NC/C=C/CC[C@H](N)C(=O)O` [Example 8, (2S,5E)-2-amino-7-[(1-iminoethyl)amino]-5-heptenoic acid, dihydrochloride], the IC50 in assay [2] amounted to 20 µM; in assay [3], 418 µM; in assay [4], 150 µM.
